Test results reported in US11306344B2, “Spectral intensity ratio (SIR) analysis for rapid live microbial enumeration” (TACOUNT EXACT LTD., priority 2015, dated 2022).
Where two headings read alike, the source gives them in different places.

How the values were obtained:
Entrobacter cloacae = experiment: Flow-Cytometry NVP of dye-stained bacteria; type: cell-based, E. cloacae
Pseudomonas aeruginosa = experiment: Flow-Cytometry NVP of dye-stained bacteria; type: cell-based, Ps. Aeruginosa
Bacillus subtillis = experiment: Flow-Cytometry NVP of dye-stained bacteria; type: cell-based, B. subtilis
Enterococcus faecalis = experiment: Flow-Cytometry SIR and NVP of dye-stained bacteria; type: cell-based, E. faecalis
S. aureus = experiment: Flow-Cytometry NVP of dye-stained bacteria; type: cell-based
Entrobacter aerogenes = experiment: Flow-Cytometry NVP of dye-stained bacteria; type: cell-based, E. aerogenes
E. coli #8739 [1] = experiment: Flow-Cytometry SIR and NVP of dye-stained bacteria; type: cell-based; details: for NVP calculation / SIR calculation: 670 (14)/780 (60) nm channels
E. coli - #25922 = experiment: Flow-Cytometry NVP of dye-stained bacteria; type: cell-based; details: FM 1-43 staining
E. coli - O157 = type: cell-based, E. coli O157:H7 (EHEC)
E. coli #8739 [2] = experiment: Fluorimeter (spectrofluorimetry) spectra, SIR and NVP of dye-stained bacteria; type: cell-based
Enterococcus faecium = experiment: Flow-Cytometry NVP of dye-stained bacteria; type: cell-based, E. faecium
E. coli K12 (MG1655) = experiment: Flow-Cytometry SIR analysis of E. coli K12 grown with ampicillin (FM 1-43 staining); type: cell-based; details: 1 hour
Experimental: The disclosed method was further validated in studies using E. coli K12 (MG1655, obtained from ATCC). After 5 hours of growth in medium, E. coli were divided into three groups: (A) grown for one hour with no antibiotics, (B) grown for one hour with 700 micrograms of ampicillin, and (C) grown for one hour with 1500 micrograms of ampicillin.
The bacteria were suspended in PBS and stained with FM® 1-43 (43N-(3-Triethylammoniumpropyl)-4-(4-(Dibutylamino) Styryl) Pyridinium Dibromide) ([…] as per the methodology described earlier.
Flow-Cytometry measurements of the stained bacterial samples were performed. In order to adjust the flow-cytometry to the spectral characterization as shown in the fluorescence spectra of the FM® 1-43 (43N-(3-Triethylammoniumpropyl)-4-(4-(Dibutylamino) Styryl) Pyridinium Dibromide) stained bacteria, the […] nm excitation channel of the flow-cytometry and two fluorescence channel using 530 (30) nm and 610 (20) nm as the λ1 and λ2 for the SIR calculation were used. The results are tabulated below and depicted in FIG. 14.

CCCCN(CCCC)c1ccc(/C=C/c2cc[n+](CCC[N+](CC)(CC)CC)cc2)cc1.[Br-].[Br-] [FM® 1-43, N-(3-Triethylammoniumpropyl)-4-(4-(Dibutylamino) Styryl) Pyridinium Dibromide]
NVP values (Entrobacter cloacae; FM 1-43 staining, Chlorine): 10
NVP values (Entrobacter cloacae; FM 1-43 staining, Heated): 8
NVP values (Entrobacter cloacae; FM 1-43 staining, UV-MP): 5
NVP values (Pseudomonas aeruginosa; FM 1-43 staining, Chlorine): 5
NVP values (Pseudomonas aeruginosa; FM 1-43 staining, Heated): 4.6
NVP values (Pseudomonas aeruginosa; FM 1-43 staining, UV-MP): 3.2
NVP values (Bacillus subtillis; FM 1-43 staining, Chlorine): 1.5
NVP values (Bacillus subtillis; FM 1-43 staining, Heated): 1.2
NVP values (Bacillus subtillis; FM 1-43 staining, UV-MP): 1.2
NVP (Enterococcus faecalis; 530(30)/610(20), Chlorine): 2
NVP (Enterococcus faecalis; 530(30)/610(20), Heated): 1.6
NVP (Enterococcus faecalis; 530(30)/610(20), UV-MP): 1.1
SIR: 530(30)/610(20) (Enterococcus faecalis; Chlorine): 13
NVP values (Enterococcus faecalis; FM 1-43 staining, Chlorine): 2
NVP values (Enterococcus faecalis; FM 1-43 staining, Heated): 1.6
NVP values (Enterococcus faecalis; FM 1-43 staining, UV-MP): 1.1
SIR: 530(30)/610(20) (Enterococcus faecalis; Heated): 10.3
SIR: 530(30)/610(20) (Enterococcus faecalis; Live): 6.5
SIR: 530(30)/610(20) (Enterococcus faecalis; UV-MP): 7.1
NVP values (S. aureus; FM 1-43 staining, Chlorine): 1.7
NVP values (S. aureus; FM 1-43 staining, Heated): 1.6
NVP values (S. aureus; FM 1-43 staining, UV-MP): 1.1
NVP values (Entrobacter aerogenes; FM 1-43 staining, Chlorine): 12
NVP values (Entrobacter aerogenes; FM 1-43 staining, Heated): 8
NVP values (Entrobacter aerogenes; FM 1-43 staining, UV-MP): 4.5
Non-Viability Parameter (NVP) (E. coli #8739 [1]; 85°, 15 min): 9
SIR (610/530) Ratio (E. coli #8739 [1]; 85°, 15 min): 8.8
Non-Viability Parameter (NVP) (E. coli #8739 [1]; Chlorine 0.05%): 10
SIR (610/530) Ratio (E. coli #8739 [1]; Chlorine 0.05%): 9.6
Non-Viability Parameter (NVP) (E. coli #8739 [1]; Ethanol 70%): 7
SIR (610/530) Ratio (E. coli #8739 [1]; Ethanol 70%): 6.5
NVP values (E. coli #8739 [1]; FM 1-43 staining, Chlorine): 10
NVP values (E. coli #8739 [1]; FM 1-43 staining, Heated): 9
NVP values (E. coli #8739 [1]; FM 1-43 staining, UV-MP): 5
SIR (610/530) Ratio (E. coli #8739 [1]; Live bacteria): 0.73
Non-Viability Parameter (NVP) (E. coli #8739 [1]; UV-LP 30 mJ): 1
SIR (610/530) Ratio (E. coli #8739 [1]; UV-LP 30 mJ): 0.7
Non-Viability Parameter (NVP) (E. coli #8739 [1]; UV-MP 30 mJ): 5
SIR (610/530) Ratio (E. coli #8739 [1]; UV-MP 30 mJ): 3.5
NVP values (E. coli - #25922; Chlorine): 9
NVP values (E. coli - #25922; Heated): 7
NVP values (E. coli - #25922; UV-MP): 5
NVP values (E. coli - O157): ~10
NVP values (E. coli - O157; FM 1-43 staining, Heated): ~10
Non-Viability Parameter (NVP) (E. coli #8739 [2]; 85°, 15 min): ~5
SIR (I610/I530) (E. coli #8739 [2]; 85°, 15 min): ~7
Non-Viability Parameter (NVP) (E. coli #8739 [2]; Chlorine 0.05%): ~5
SIR (I610/I530) (E. coli #8739 [2]; Chlorine 0.05%): ~8
Non-Viability Parameter (NVP) (E. coli #8739 [2]; Ethanol 70%): ~3
SIR (I610/I530) (E. coli #8739 [2]; Ethanol 70%): 4.4
SIR (I610/I530) (E. coli #8739 [2]; Live bacteria): ~1.5
Non-Viability Parameter (NVP) (E. coli #8739 [2]; UV-LP 30 mJ): 1
SIR (I610/I530) (E. coli #8739 [2]; UV-LP 30 mJ): 1
Non-Viability Parameter (NVP) (E. coli #8739 [2]; UV-MP 30 mJ): ~2
SIR (I610/I530) (E. coli #8739 [2]; UV-MP 30 mJ): 3.7
NVP values (Enterococcus faecium; FM 1-43 staining, Chlorine): 1.7
NVP values (Enterococcus faecium; FM 1-43 staining, Heated): 1.6

CCN(CC)c1ccc(C=CC=CC=Cc2cc[n+](CCC[N+](CC)(CC)CC)cc2)cc1.[Br-].[Br-] [FM® 4-64, N-(3-Triethylammoniumpropyl)-4-(6-(4-(Diethylamino) Phenyl) Hexatrienyl) Pyridinium Dibromide]
NVP values (Entrobacter cloacae; FM 4-64 staining, Chlorine): 4.5
NVP values (Entrobacter cloacae; FM 4-64 staining, Heated): 3.7
NVP values (Entrobacter cloacae; FM 4-64 staining, UV-MP): 2.5
NVP values (Pseudomonas aeruginosa; FM 4-64 staining, Chlorine): 2
NVP values (Pseudomonas aeruginosa; FM 4-64 staining, Heated): 1.8
NVP values (Bacillus subtillis; FM 4-64 staining, Chlorine): 1.5
NVP values (Bacillus subtillis; FM 4-64 staining, Heated): 1.8
NVP (Enterococcus faecalis; 670(14)/780(60), Chlorine): 2.9
NVP (Enterococcus faecalis; 670(14)/780(60), Heated): 3
NVP (Enterococcus faecalis; 670(14)/780(60), UV-MP): 1.2
SIR: 670(14)/780(60) (Enterococcus faecalis; Chlorine): 19.7
NVP values (Enterococcus faecalis; FM 4-64 staining, Chlorine): 2.9
NVP values (Enterococcus faecalis; FM 4-64 staining, Heated): 3
NVP values (Enterococcus faecalis; FM 4-64 staining, UV-MP): 1.2
SIR: 670(14)/780(60) (Enterococcus faecalis; Heated): 20
SIR: 670(14)/780(60) (Enterococcus faecalis; Live): 6.7
SIR: 670(14)/780(60) (Enterococcus faecalis; UV-MP): 8.1
NVP values (S. aureus; FM 4-64 staining, Chlorine): 2.4
NVP values (S. aureus; FM 4-64 staining, Heated): 3
NVP values (S. aureus; FM 4-64 staining, UV-MP): 1.1
NVP values (Entrobacter aerogenes; FM 4-64 staining, Chlorine): 4.5
NVP values (Entrobacter aerogenes; FM 4-64 staining, Heated): 3.3
NVP values (Entrobacter aerogenes; FM 4-64 staining, UV-MP): 1.7
NVP calculation (E. coli #8739 [1]; Chlorinated): 3.4
SIR calculation (E. coli #8739 [1]; Chlorinated): 12
NVP calculation (E. coli #8739 [1]; Heated (85°, 15 min)): 4
SIR calculation (E. coli #8739 [1]; Heated (85°, 15 min)): 14
SIR calculation (E. coli #8739 [1]; Live): 3.5
NVP calculation (E. coli #8739 [1]; UV-MP): 3.7
SIR calculation (E. coli #8739 [1]; UV-MP): 13
NVP values (E. coli #8739 [1]; FM 4-64 staining, Chlorine): 3.4
NVP values (E. coli #8739 [1]; FM 4-64 staining, Heated): 4
NVP values (E. coli #8739 [1]; FM 4-64 staining, UV-MP): 3.7
NVP values (Enterococcus faecium; FM 4-64 staining, Chlorine): 3
NVP values (Enterococcus faecium; FM 4-64 staining, Heated): 3

CC1(C)S[C@@H]2[C@H](NC(=O)[C@H](N)c3ccccc3)C(=O)N2[C@H]1C(=O)O [ampicillin]
% from population (E. coli K12 (MG1655); 700 μg ampicillin, DEAD gate): 15%
SIR (E. coli K12 (MG1655); 700 μg ampicillin, DEAD gate): 4.4
% from population (E. coli K12 (MG1655); 700 μg ampicillin, LIVE gate): 83.7%
SIR (E. coli K12 (MG1655); 700 μg ampicillin, LIVE gate): 1
% from population (E. coli K12 (MG1655); 1500 μg ampicillin, DEAD gate): 20%
SIR (E. coli K12 (MG1655); 1500 μg ampicillin, DEAD gate): 5.3
% from population (E. coli K12 (MG1655); 1500 μg ampicillin, LIVE gate): 78%
SIR (E. coli K12 (MG1655); 1500 μg ampicillin, LIVE gate): 1
